Measurements taken from patent US20230113511A1, “USE OF TMAVA ANTAGONIST AND SYSTEM FOR DIAGNOSING FATTY LIVER OR HEART FAILURE” (ProgLead, Inc, priority 2020, published 2023).
Blank lines part the entries; values can stand above or below the molecule they belong to.

What was measured:
mice [1] = assay: Carnitine absorption: d9-carnitine by gavage in TMAVA-treated mice; assay type: in vivo
[2] = biological target: T1, γ-isopropylbetaine hydroxylase (Bbox) (Homo sapiens, UniProt O75936); assay: Bbox immobilized on a graphene surface and contacted with TMAVA; assay type: binding; details: in a similar way as γ-BB to Bbox
T1 sequence (O75936 1-387): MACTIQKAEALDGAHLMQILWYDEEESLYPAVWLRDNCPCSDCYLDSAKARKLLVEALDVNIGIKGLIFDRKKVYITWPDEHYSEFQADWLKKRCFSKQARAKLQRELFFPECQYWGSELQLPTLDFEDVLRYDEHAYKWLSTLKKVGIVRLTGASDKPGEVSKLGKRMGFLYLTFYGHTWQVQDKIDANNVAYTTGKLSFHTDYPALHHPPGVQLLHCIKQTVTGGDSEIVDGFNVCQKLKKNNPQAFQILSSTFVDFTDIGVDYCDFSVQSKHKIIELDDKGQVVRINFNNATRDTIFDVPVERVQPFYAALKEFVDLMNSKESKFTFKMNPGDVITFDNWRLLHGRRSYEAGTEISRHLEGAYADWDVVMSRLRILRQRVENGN

mice [3] = assay: Lipidolysis in high-fat diet mice given TMAVA in drinking water for 8 weeks; assay type: in vivo
Description: (§1) Mice in an experimental group were given a high-fat diet and drinking water dissolved with 0.325% (mass/volume %) TMAVA; and mice in a control group were given a high-fat diet and normal drinking water. After 8 weeks, the mice in the experimental group and the control group were sacrificed and tested.

mice [4] = assay: High-fat diet mice given TMAVA in drinking water for 8 weeks (fatty liver and myocardial hypertrophy); assay type: in vivo
Description: as §1, with “TMAVA for 8 weeks;” for “TMAVA;”

[5] = biological target: T2, γ-isopropylbetaine hydroxylase (Bbox) (Mus musculus, UniProt Q924Y0); assay: d9 carnitine formation from d9-γ-BB in high-fat diet mice given TMAVA; assay type: in vivo; details: 0.325% TMAVA in drinking water and d9-γ-BB, 8 weeks
T2 construct: from tissue; host or cells: whole animal (mice on high-fat diet)
T2 sequence (Q924Y0 1-387): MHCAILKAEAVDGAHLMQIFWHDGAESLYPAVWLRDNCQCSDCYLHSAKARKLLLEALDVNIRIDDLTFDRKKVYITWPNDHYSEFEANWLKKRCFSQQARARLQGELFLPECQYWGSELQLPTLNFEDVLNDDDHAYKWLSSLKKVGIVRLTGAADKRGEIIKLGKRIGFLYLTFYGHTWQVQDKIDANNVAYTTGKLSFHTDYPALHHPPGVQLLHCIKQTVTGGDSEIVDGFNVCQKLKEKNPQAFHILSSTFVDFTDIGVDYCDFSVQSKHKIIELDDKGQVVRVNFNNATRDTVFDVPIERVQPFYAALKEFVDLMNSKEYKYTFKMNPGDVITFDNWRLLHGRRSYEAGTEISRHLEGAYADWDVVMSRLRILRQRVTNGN
Description: Endogenous carnitine synthesis played an important role in physiological dynamic equilibrium. A carnitine precursor (γ-BB) was hydroxylated by y-isopropylbetaine hydroxylase (Bbox) to produce carnitine.
Mice in an experimental group were given a high-fat diet, drinking water dissolved with 0.325% (mass/volume %) TMAVA, and d9-γ-BB; and mice in the control group were given a high-fat diet, normal drinking water, and d9-γ-BB. After 8 weeks, the mice in the experimental group and the control group were sacrificed and tested.

[6] = biological target: T1, γ-isopropylbetaine hydroxylase (Bbox); assay: Binding affinity of Bbox and TMAVA by surface plasmon resonance; details: read-out: separation rate coefficient constant (binding affinity of Bbox and TMAVA)
DavA and DavB proteins = biological target: T3, DavA and DavB proteins (Pseudomonas putida, UniProt Q88QV1); details: purified DavA and DavB proteins from recombinant Escherichia coli strains
T3 sequence (Q88QV1 1-560): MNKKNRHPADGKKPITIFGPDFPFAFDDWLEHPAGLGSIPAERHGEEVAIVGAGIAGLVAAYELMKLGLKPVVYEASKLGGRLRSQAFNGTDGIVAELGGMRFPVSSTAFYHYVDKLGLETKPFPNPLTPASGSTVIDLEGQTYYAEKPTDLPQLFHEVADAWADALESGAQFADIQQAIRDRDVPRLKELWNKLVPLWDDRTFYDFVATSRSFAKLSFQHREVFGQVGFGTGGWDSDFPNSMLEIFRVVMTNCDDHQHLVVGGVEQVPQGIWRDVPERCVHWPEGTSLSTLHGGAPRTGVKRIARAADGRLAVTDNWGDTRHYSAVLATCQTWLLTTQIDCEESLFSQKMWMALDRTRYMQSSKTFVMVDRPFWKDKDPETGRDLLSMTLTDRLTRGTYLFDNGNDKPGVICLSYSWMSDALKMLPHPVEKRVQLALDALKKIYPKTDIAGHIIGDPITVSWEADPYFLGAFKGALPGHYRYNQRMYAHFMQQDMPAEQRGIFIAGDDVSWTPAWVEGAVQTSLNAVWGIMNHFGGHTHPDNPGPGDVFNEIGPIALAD

mice [7] = assay: TML added to the drinking water of mice, urine TMAVA; assay type: in vivo
Description: The antibiotic-treated mice were then placed in conventional cages with normal (non-sterile) mice to colonize the intestinal flora.

intestinal flora = assay: Co-incubation of conventionally raised mice feces with TML; details: different concentrations of TML, sterilized feces had no such effect
mice [8] = assay: Exogenous carnitine supplementation in TMAVA-induced fatty liver and myocardial hypertrophy in mice; assay type: in vivo; details: high-fat diet, 0.325% TMAVA plus 0.325% carnitine in drinking water, 8 weeks
Description: Mice were given a high-fat diet and drinking water containing 0.325% (mass/volume %) TMAVA; at the same time, one group was given TMAVA with 0.325% (mass/volume %) carnitine added to the drinking water (carnitine supplementation group).

mice [9] = assay: d9-TML by gavage in mice, plasma d9-TMAVA; assay type: in vivo
[10] = histological analysis, 0.325% TMAVA

binding of TMAVA to Bbox on graphene surface [2]: can bind to Bbox
level of d9 carnitine compared with control group [5]: significantly lower
Kd [6]: 9.8 µM
SMILES: C[N+](C)(C)CCCCC(=O)[O-] [TMAVA, N,N,N-trimethyl-5-aminovaleric acid]
level of d9-carnitine in the plasma compared with normal mice (mice [1]): significantly lower
level of free fatty acid in the blood compared with control group (mice [3]; 0.325% TMAVA in drinking water): higher
weight of the mice, decrease compared with control group (mice [3]; 0.325% TMAVA in drinking water): 30%
percentage of large and medium-sized fat cells in the subcutaneous fat (mice [3]; [10]): decreased
percentage of small fat cells in the subcutaneous fat (mice [3]; [10]): increased
concentration of TMAVA in the plasma and various tissues, increase compared with control group (mice [4]; 0.325% (mass/volume %) TMAVA in drinking water): 10 times
cardiac systolic function (mice [4]; 0.325% TMAVA in drinking water): significantly reduced
concentration of aspartate aminotransferase in the plasma compared with control group (mice [4]; 0.325% TMAVA in drinking water): higher
level of triglyceride in the liver and heart tissues compared with control group (mice [4]; 0.325% TMAVA in drinking water): significantly higher
lipid droplet content in the liver and heart tissues (oil red O) compared with control group (mice [4]; 0.325% TMAVA in drinking water): higher
liver and heart size compared with control group (mice [4]; 0.325% TMAVA in drinking water): significantly larger
content of triglyceride in the plasma compared with control group (mice [4]; fasting state, 0.325% TMAVA in drinking water): significantly higher

SMILES: C[N+](C)(C)CCCC[C@H](N)C(=O)O [TML, Trimethyllysine]
TMAVA production in vitro from TML (DavA and DavB proteins): time-dependently produced
TMAVA level in urine (mice [7]): increased
TMAVA level on co-incubation of feces with TML (intestinal flora): increased over time and concentration

SMILES: C[N+](C)(C)CC(O)CC(=O)[O-] (centres unmarked) [carnitine]
aspartate aminotransferase after carnitine supplementation (mice [8]): 50 U/L
cardiac systolic function (mice [8]): significantly improved
content of triglyceride in the liver tissues, decrease (mice [8]): 20%
level of free fatty acid in the plasma (mice [8]): decreased
level of triglyceride in the plasma, decrease (mice [8]): 50%
lipid content in the liver tissues (oil red O) (mice [8]): decreased
weight of the heart (mice [8]): significantly reduced

plasma level of d9-TMAVA after d9-TML (mice [9]): increase over time
SMILES: [2H]C([2H])([2H])[N+](CCCCC(N)C(=O)[O-])(C([2H])([2H])[2H])C([2H])([2H])[2H] (centres unmarked) [d9-TML]
